Experimental data: the supplement of paper PMC10307832

Tests used:
Experiment in all cases: relative viability (nuclei count vs DMSO), 5 days (fraction); higher = more cells survive
[1] = compound: CC1=C(C(=O)N2C=CSC2=N1)CCN3CCC(=C(C4=CC=CC=C4)C5=CC=C(C=C5)F)CC3
Procedure, shortened: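 Viability here means nuclei in treated wells divided by nuclei in vehicle wells, reported as the median across plates. Only plates with control CV below 25% and at least one doubling passed. Lung cancer cell lines in 1536-well plates were exposed to five √10-spaced library-drug doses for 5 days and counted from 4× Hoechst images in MetaXpress.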

[2] = compound: CC1=C(C(=O)N2C=CSC2=N1)CCN3CCC(=C(C4=CC=CC=C4)C5=CC=C(C=C5)F)CC3 + CC(=O)Nc1cccc(-n2c(=O)n(C3CC3)c(=O)c3c(Nc4ccc(I)cc4F)n(C)c(=O)c(C)c32)c1 [Trametinib] (partner 0.02 µM)
Procedure, shortened: (§1)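 Lung cancer cell lines, seeded in 1536-well plates, were treated the following day by pin tool with a single drug or with five library-drug doses (not always all listed) in √10 steps on top of a fixed anchor-drug dose. Cells were fixed and nuclei stained in one step after 5 days, and nuclei were counted. Relative viability is the nuclei count for treated wells divided by that for vehicle wells, reported as medians of duplicate plates.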

[3] = compound: CC1=C(C(=O)N2C=CSC2=N1)CCN3CCC(=C(C4=CC=CC=C4)C5=CC=C(C=C5)F)CC3 + COc1cccc2cc(-c3nc([C@H]4CC[C@H](C(=O)O)CC4)n4ncnc(N)c34)[nH]c12 [OSI-027] (partner 0.5 µM)
Procedure, shortened: as §1

[4] = compound: CC1=C(C(=O)N2C=CSC2=N1)CCN3CCC(=C(C4=CC=CC=C4)C5=CC=C(C=C5)F)CC3 + N=C(N)NC(=N)NCCc1ccccc1 [Phenformin] (partner 250 µM)
Procedure, shortened: as §1

| Cell Line | relative viability ([1]; 0.08 µM) | relative viability ([1]; 0.253 µM) | relative viability ([1]; 0.8 µM) | relative viability ([1]; 2.53 µM) | relative viability ([1]; 8 µM) | relative viability ([2]; first compound 0.08 µM) | relative viability ([2]; first compound 0.253 µM) | relative viability ([2]; first compound 0.8 µM) | relative viability ([2]; first compound 2.53 µM) | relative viability ([2]; first compound 8 µM) | relative viability ([3]; first compound 0.08 µM) | relative viability ([3]; first compound 0.253 µM) | relative viability ([3]; first compound 0.8 µM) | relative viability ([3]; first compound 2.53 µM) | relative viability ([3]; first compound 8 µM) | relative viability ([4]; first compound 0.08 µM) | relative viability ([4]; first compound 0.253 µM) | relative viability ([4]; first compound 0.8 µM) | relative viability ([4]; first compound 2.53 µM) | relative viability ([4]; first compound 8 µM) |
| --- | --- | --- | --- | --- | --- | --- | --- | --- | --- | --- | --- | --- | --- | --- | --- | --- | --- | --- | --- | --- |
| HCC-15 | 0.955 | 1.14 | 1.03 | 0.991 | 0.725 | 0.352 | 0.432 | 0.342 | 0.38 | 0.349 | 0.593 | 0.628 | 0.707 | 0.782 | 0.507 | 0.432 | 0.453 | 0.434 | 0.423 | 0.334 |
| HCC-44 | 1.07 | 1.04 | 0.997 | 1.15 | 0.888 | 1.13 | 1.12 | 1.13 | 1.01 | 1.04 | 0.69 | 0.548 | – | 0.494 | 0.491 | 0.172 | 0.15 | 0.148 | 0.217 | 0.202 |
| HCC-78 | 0.833 | 1.08 | 0.943 | 0.954 | 0.806 | 0.818 | 0.837 | 0.941 | 0.727 | 0.616 | 0.352 | 0.349 | 0.406 | 0.356 | 0.326 | 0.689 | 0.76 | 0.695 | 0.691 | 0.531 |
| HCC-366 | 0.852 | 1.02 | 1.06 | 1.05 | 0.502 | 0.422 | 0.384 | 0.377 | 0.404 | 0.216 | 1.17 | 1.2 | 1.04 | 1.12 | 0.252 | 0.638 | 0.65 | 0.626 | 0.579 | 0.472 |
| HCC-827 | 1.02 | 1.1 | 1.04 | 1.05 | 0.943 | 0.483 | 0.503 | 0.501 | 0.62 | 0.53 | 0.761 | 0.776 | 0.842 | 0.833 | 0.62 | 0.4 | 0.413 | 0.444 | 0.398 | 0.407 |
| HOP-62 | 1.01 | 1.02 | 0.988 | 0.946 | 0.577 | 0.34 | 0.365 | 0.37 | 0.422 | 0.225 | 0.92 | 0.771 | 0.837 | 0.824 | 0.488 | 0.711 | 0.774 | 0.678 | 0.491 | 0.381 |
| IA-LM | 0.761 | 0.928 | 1.1 | 0.944 | 0.497 | – | – | – | – | – | – | – | – | – | – | – | – | – | – | – |
| LC-2-ad | 1.09 | 0.994 | 0.94 | 1.04 | 0.865 | 0.943 | 0.98 | 0.938 | 0.95 | 0.606 | 0.876 | 0.994 | 0.87 | 0.913 | 0.663 | 0.656 | 0.656 | 0.543 | 0.62 | 0.566 |
| LCLC-97TM1 | 0.921 | 1.07 | 1.02 | 0.874 | 0.91 | 0.183 | 0.18 | 0.23 | 0.172 | 0.151 | 0.585 | 0.585 | 0.507 | 0.487 | 0.369 | 0.435 | 0.434 | 0.447 | 0.448 | 0.411 |
| LCLC-103H | 1.04 | 1.06 | 0.957 | 1.04 | 0.796 | 0.672 | 0.645 | 0.68 | 0.743 | 0.549 | 0.567 | 0.605 | 0.401 | 0.462 | 0.411 | 0.327 | 0.331 | 0.316 | 0.308 | 0.289 |
| LK-2 | 0.955 | 0.902 | 1.07 | 0.998 | 0.658 | 0.629 | 0.723 | 0.886 | 0.801 | 0.477 | 0.242 | 0.188 | 0.156 | 0.18 | 0.212 | 0.417 | 0.386 | 0.301 | 0.297 | 0.321 |
| LOU-NH91 | 1.01 | 0.927 | 0.973 | 1.04 | 0.911 | 0.776 | 0.793 | 0.794 | 0.869 | 0.679 | 0.734 | 0.769 | 0.767 | 0.76 | 0.642 | 0.72 | 0.676 | 0.689 | 0.673 | 0.597 |
| NCI-H1299 | 1.08 | 1 | 1 | 1.01 | 0.714 | – | – | – | – | – | – | – | – | – | – | – | – | – | – | – |
| NCI-H1563 | 0.903 | 0.949 | 0.882 | 0.986 | 0.918 | – | – | – | – | – | 0.85 | 0.72 | 0.732 | 0.763 | 0.644 | 0.654 | 0.7 | 0.695 | 0.633 | 0.648 |
| NCI-H1648 | 0.797 | 0.802 | 0.802 | 0.706 | 0.883 | 0.437 | 0.378 | 0.427 | 0.465 | 0.417 | 0.229 | – | – | 0.209 | 0.265 | – | – | – | – | – |
| NCI-H1703 | 1.03 | 0.821 | 0.865 | 1.13 | 0.624 | – | – | – | – | – | – | – | – | – | – | – | – | – | – | – |
